Data reported in patent US9896440B2, “Aryl substituted heterocyclyl sulfones” (GRÜNENTHAL GMBH, priority 2014, dated 2018).

Target: T1, Human CaV2.2 channels (Homo sapiens, UniProt Q00975)
T1 construct: expressed in transfected cells; Kir2.3 also stably co-expressed
Assay: Fluorescence assay for CaV2.2 channels using potassium depolarization to induce channel opening (FLIPR, Fluo 4)
Type: cell-based
Conditions: 30 mM KCl assay buffer (inactivated channel state), HEK293 cells; for Activity Category: %-Inhib (CaV2.2) @3 μM @30 mM KCl: 3 μM test compound; for inhibition at 3 µM: HEK293, 3 μM test compound, read-out: Activity Category: %-Inhib (CaV2.2) @3 μM @30 mM KCl
Summary of the method: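 HEK293 cells stably co-expressing human CaV2.2 with α2δ and β subunits plus Kir2.3, Fluo-4 loaded; compounds preincubated 15 min at 25 °C in 1 mM or 30 mM KCl buffer (inactivated state), pH 7.4. Depolarized by KCl addition; baseline-normalized peak fluorescence (ex 480/em 535 nm) gave inhibition.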

T1 sequence (Q00975 whole entry): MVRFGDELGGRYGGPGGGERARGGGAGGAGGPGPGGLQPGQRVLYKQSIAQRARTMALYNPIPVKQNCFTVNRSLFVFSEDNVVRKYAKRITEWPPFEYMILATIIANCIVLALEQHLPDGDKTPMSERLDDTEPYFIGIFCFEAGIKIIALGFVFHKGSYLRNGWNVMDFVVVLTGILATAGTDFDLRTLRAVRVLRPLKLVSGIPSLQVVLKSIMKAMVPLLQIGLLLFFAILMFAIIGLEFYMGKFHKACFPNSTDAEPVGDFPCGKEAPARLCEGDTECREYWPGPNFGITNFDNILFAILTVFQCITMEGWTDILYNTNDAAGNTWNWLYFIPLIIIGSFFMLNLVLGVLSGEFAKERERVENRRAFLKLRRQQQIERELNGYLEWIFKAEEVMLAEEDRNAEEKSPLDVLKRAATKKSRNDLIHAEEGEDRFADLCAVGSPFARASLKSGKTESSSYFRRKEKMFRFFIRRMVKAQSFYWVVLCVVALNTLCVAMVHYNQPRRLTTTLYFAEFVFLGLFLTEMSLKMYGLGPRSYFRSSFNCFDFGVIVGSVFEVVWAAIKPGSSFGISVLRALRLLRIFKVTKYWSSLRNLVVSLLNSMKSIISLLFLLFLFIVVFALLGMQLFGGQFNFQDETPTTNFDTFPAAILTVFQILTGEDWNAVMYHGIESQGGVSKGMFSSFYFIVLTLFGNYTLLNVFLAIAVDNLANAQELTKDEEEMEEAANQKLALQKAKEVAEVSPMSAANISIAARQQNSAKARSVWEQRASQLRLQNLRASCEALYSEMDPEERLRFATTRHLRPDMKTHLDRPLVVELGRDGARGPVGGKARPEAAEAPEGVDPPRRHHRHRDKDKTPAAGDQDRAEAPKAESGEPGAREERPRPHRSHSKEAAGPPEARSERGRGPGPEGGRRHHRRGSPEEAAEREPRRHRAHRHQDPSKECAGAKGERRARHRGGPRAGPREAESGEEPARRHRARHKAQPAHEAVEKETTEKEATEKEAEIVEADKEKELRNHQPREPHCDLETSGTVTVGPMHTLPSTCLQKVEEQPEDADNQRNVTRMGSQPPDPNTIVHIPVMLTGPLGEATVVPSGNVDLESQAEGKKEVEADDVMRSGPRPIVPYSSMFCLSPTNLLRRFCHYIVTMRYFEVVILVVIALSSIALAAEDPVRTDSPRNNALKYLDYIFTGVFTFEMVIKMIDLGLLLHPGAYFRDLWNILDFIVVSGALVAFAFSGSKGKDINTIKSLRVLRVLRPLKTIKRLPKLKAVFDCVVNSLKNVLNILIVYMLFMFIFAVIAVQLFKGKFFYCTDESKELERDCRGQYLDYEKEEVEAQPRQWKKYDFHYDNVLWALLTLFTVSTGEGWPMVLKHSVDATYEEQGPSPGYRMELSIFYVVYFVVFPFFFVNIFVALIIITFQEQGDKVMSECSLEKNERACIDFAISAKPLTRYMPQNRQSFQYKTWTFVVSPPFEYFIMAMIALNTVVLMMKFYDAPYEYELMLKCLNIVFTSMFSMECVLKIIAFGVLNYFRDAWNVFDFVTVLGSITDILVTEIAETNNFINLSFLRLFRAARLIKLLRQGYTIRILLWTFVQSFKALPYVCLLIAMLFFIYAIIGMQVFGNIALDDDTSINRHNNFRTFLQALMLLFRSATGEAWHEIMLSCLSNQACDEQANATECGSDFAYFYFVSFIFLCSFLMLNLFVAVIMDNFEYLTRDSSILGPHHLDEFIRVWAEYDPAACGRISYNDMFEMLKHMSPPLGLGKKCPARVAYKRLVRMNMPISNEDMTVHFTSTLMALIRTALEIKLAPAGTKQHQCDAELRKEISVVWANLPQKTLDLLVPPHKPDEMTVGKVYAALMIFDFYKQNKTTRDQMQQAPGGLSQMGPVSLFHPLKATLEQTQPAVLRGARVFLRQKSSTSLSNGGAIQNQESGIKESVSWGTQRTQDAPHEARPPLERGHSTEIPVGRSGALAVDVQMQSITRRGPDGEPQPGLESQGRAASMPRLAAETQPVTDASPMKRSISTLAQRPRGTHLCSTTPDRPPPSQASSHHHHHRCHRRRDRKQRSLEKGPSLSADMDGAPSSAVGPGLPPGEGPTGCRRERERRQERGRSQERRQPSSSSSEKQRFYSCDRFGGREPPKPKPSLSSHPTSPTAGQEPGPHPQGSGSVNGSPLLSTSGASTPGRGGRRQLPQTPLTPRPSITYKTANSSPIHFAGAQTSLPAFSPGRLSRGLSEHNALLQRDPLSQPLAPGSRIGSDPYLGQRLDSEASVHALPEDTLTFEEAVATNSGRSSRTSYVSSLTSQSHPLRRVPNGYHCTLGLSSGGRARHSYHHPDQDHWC

## CC1(C)CC(C)(S(=O)(=O)c2cccc(C(F)(F)F)c2)CC(c2ccc(Cl)cc2)O1 (stereo not shown) [SC-301, 6-(4-Chlorophenyl)-2,2,4-trimethyl-4-[[3-(trifluoromethyl)phenyl]sulfonyl]-tetrahydro-pyran]
  Activity Category: %-Inhib (CaV2.2) @3 μM @30 mM KCl: B (%-Inhibition >75% up to ≦95%)

## CN(C)CC1(S(=O)(=O)c2cccc(C(F)(F)F)c2)CCOC(c2ccc(Cl)cc2)C1 (stereo not shown) [SC-214, [[2-(4-Chlorophenyl)-4-[[3-(trifluoromethyl)phenyl]sulfonyl]-tetrahydro-pyran-4-yl]-methyl]-dimethyl-amine]
  Activity Category: %-Inhib (CaV2.2) @3 μM @30 mM KCl: A (%-Inhibition >95%)

## CC1(S(=O)(=O)c2cccc(C(F)(F)F)c2)CCC(c2ccc(Cl)cc2)OC1 (single isomer, unassigned) [SC-116, 2-(4-Chlorophenyl)-5-methyl-5-[[3-(trifluoromethyl)phenyl]sulfonyl]-tetrahydro-pyran]
  inhibition at 3 µM: 40 to 75%

## CC(C)Oc1cccc(S(=O)(=O)C2(C)CCOC(c3ccc(S(C)(=O)=O)cc3F)C2)c1 (racemic) [SC-511, 2-(2-Fluoro-4-methylsulfonyl-phenyl)-4-[(3-isopropoxy-phenyl)sulfonyl]-4-methyl-tetrahydro-pyran]
  inhibition at 3 µM: 75 to 95%

## COCC1(S(=O)(=O)c2cccc(C(F)(F)F)c2)CCOC(c2ccc(Cl)cc2)C1 (stereo not shown) [SC-217, 2-(4-Chlorophenyl)-4-(methoxymethyl)-4-[[3-(trifluoromethyl)phenyl]sulfonyl]-tetrahydro-pyran]
  Activity Category: %-Inhib (CaV2.2) @3 μM @30 mM KCl: C (%-Inhibition >40% up to ≦75%)

## CC1(S(=O)(=O)c2cccc(C(F)(F)F)c2)CCOC(c2cc(F)cc(S(C)(=O)=O)c2)C1 (stereo not shown) [SC-297, 2-(3-Fluoro-5-methylsulfonyl-phenyl)-4-methyl-4-[[3-(trifluoromethyl)phenyl]sulfonyl]-tetrahydro-pyran]
  Activity Category: %-Inhib (CaV2.2) @3 μM @30 mM KCl: A (%-Inhibition >95%)

## CC1(S(=O)(=O)c2cccc(C(F)(F)F)c2)CCOC(c2ccc(S(C)(=O)=O)cc2)C1 (stereo not shown) [SC-112, 4-Methyl-2-(4-methylsulfonyl-phenyl)-4-[[3-(trifluoromethyl)phenyl]sulfonyl]-tetrahydro-pyran]
  inhibition at 3 µM: > 95%

## CC1(S(=O)(=O)c2cccc(C(F)(F)F)c2)CCOC(c2ccc(S(C)(=O)=O)cc2)C1 (stereo not shown) [SC-113, 4-Methyl-2-(4-methylsulfonyl-phenyl)-4-[[3-(trifluoromethyl)phenyl]sulfonyl]-tetrahydro-pyran]
  Activity Category: %-Inhib (CaV2.2) @3 μM @30 mM KCl: B (%-Inhibition >75% up to ≦95%)

## CC1(S(=O)(=O)c2cccc(C(F)(F)F)c2)CCOC(Cc2ccc(Cl)cc2)C1 (single isomer, unassigned) [SC-130, 2-[(4-Chlorophenyl)-methyl]-4-methyl-4-[[3-(trifluoromethyl)phenyl]sulfonyl]-tetrahydro-pyran]
  inhibition at 3 µM: 75 to 95%

## CCC1(S(=O)(=O)c2cccc(C(F)(F)F)c2)CCOC(c2ccc(Cl)cc2)C1 (stereo not shown) [SC-230, 2-(4-Chlorophenyl)-4-ethyl-4-[[3-(trifluoromethyl)phenyl]sulfonyl]-tetrahydro-pyran]
  inhibition at 3 µM: > 95%

## CC1(C)CC(C)(S(=O)(=O)c2cccc(C(F)(F)F)c2)CC(c2ccc(Cl)cc2)O1 (racemic) [SC-302, 6-(4-Chlorophenyl)-2,2,4-trimethyl-4-[[3-(trifluoromethyl)phenyl]sulfonyl]-tetrahydro-pyran]
  inhibition at 3 µM: 75 to 95%

## CC1(S(=O)(=O)c2cccc(OC(F)(F)F)c2)CCOC(c2ccc(Cl)cc2)C1 (racemic) [SC-315, 2-(4-Chlorophenyl)-4-methyl-4-[[3-(trifluoromethyloxy)-phenyl]sulfonyl]-tetrahydro-pyran]
  inhibition at 3 µM: > 95%

## CC1(S(=O)(=O)c2cccc(OC(F)(F)F)c2)CCOC(c2ccc(Cl)cc2)C1 (stereo not shown) [SC-313, 2-(4-Chlorophenyl)-4-methyl-4-[[3-(trifluoromethyloxy)-phenyl]sulfonyl]-tetrahydro-pyran]
  inhibition at 3 µM: > 95%

## O=S(=O)(c1cccc(C(F)(F)F)c1)C1CCOC(c2ccc(Cl)cc2)C1 (stereo not shown) [SC-402, 2-(4-Chlorophenyl)-4-[[3-(trifluoromethyl)phenyl]sulfonyl]-tetrahydro-pyran]
  Activity Category: %-Inhib (CaV2.2) @3 μM @30 mM KCl: A (%-Inhibition >95%)

## CC1(S(=O)(=O)c2cccc(C(F)(F)F)n2)CCOC(c2ccc(S(C)(=O)=O)cc2)C1 (stereo not shown) [SC-293, 2-[[4-Methyl-2-(4-methylsulfonyl-phenyl)-tetrahydro-pyran-4-yl]sulfonyl]-6-(trifluoromethyl)-pyridine]
  inhibition at 3 µM: 40 to 75%

## CCC1(S(=O)(=O)c2cccc(C(F)(F)F)c2)CCOC(c2ccc(Cl)cc2)C1 (stereo not shown) [SC-231, 2-(4-Chlorophenyl)-4-ethyl-4-[[3-(trifluoromethyl)phenyl]sulfonyl]-tetrahydro-pyran]
  Activity Category: %-Inhib (CaV2.2) @3 μM @30 mM KCl: B (%-Inhibition >75% up to ≦95%)

## CC1(S(=O)(=O)c2cccc(C(F)(F)F)n2)CCOC(c2ccc(Cl)cc2)C1 (stereo not shown) [SC-107, 2-[[2-(4-Chlorophenyl)-4-methyl-tetrahydro-pyran-4-yl]sulfonyl]-6-(trifluoromethyl)-pyridine]
  Activity Category: %-Inhib (CaV2.2) @3 μM @30 mM KCl: B (%-Inhibition >75% up to ≦95%)

## Cc1nc2cc(C3CC(C)(S(=O)(=O)c4cccc(C(F)(F)F)c4)CCO3)ccc2o1 (stereo not shown) [SC-280, 2-Methyl-5-[4-methyl-4-[[3-(trifluoromethyl)phenyl]sulfonyl]-tetrahydro-pyran-2-yl]-benzooxazole]
  Activity Category: %-Inhib (CaV2.2) @3 μM @30 mM KCl: A (%-Inhibition >95%)

## CC1(S(=O)(=O)c2cccc(C(F)(F)F)c2)CCOC(c2ccc(S(C)(=O)=O)c(F)c2)C1 (stereo not shown) [SC-208, 2-(3-Fluoro-4-methylsulfonyl-phenyl)-4-methyl-4-[[3-(trifluoromethyl)phenyl]sulfonyl]-tetrahydro-pyran]
  inhibition at 3 µM: > 95%

## CC1(S(=O)(=O)c2cccc(C(F)(F)F)c2)CCOC(c2ccc(S(C)(=O)=O)c(S(C)(=O)=O)c2)C1 (single isomer, unassigned) [SC-133, 2-[3,4-Bis(methylsulfonyl)-phenyl]-4-methyl-4-[[3-(trifluoromethyl)phenyl]sulfonyl]-tetrahydro-pyran]
  Activity Category: %-Inhib (CaV2.2) @3 μM @30 mM KCl: A (%-Inhibition >95%)

## CC1(S(=O)(=O)c2cccc(C(F)(F)F)c2)CCOC(c2ccc(Cl)cc2)C1 (stereo not shown) [SC-312, 2-(4-Chlorophenyl)-4-methyl-4-[[3-(trifluoromethyl)phenyl]sulfonyl]-tetrahydro-pyran]
  Activity Category: %-Inhib (CaV2.2) @3 μM @30 mM KCl: B (%-Inhibition >75% up to ≦95%)

## CC1(S(=O)(=O)c2cccc(C(F)(F)F)c2)CCOC(c2cc(F)ccc2S(C)(=O)=O)C1 (stereo not shown) [SC-205, 2-(5-Fluoro-2-methylsulfonyl-phenyl)-4-methyl-4-[[3-(trifluoromethyl)phenyl]sulfonyl]-tetrahydro-pyran]
  inhibition at 3 µM: 75 to 95%

## CC1(S(=O)(=O)c2cccc(C(F)(F)F)c2)CCOC(COc2ccc(S(C)(=O)=O)cc2F)C1 (single isomer, unassigned) [SC-149, 2-[(2-Fluoro-4-methylsulfonyl-phenoxy)-methyl]-4-methyl-4-[[3-(trifluoromethyl)phenyl]sulfonyl]-tetrahydro-pyran]
  Activity Category: %-Inhib (CaV2.2) @3 μM @30 mM KCl: A (%-Inhibition >95%)

## Cc1ccc(C(F)(F)F)cc1S(=O)(=O)C1CCOC(c2ccc(Cl)cc2)C1 (stereo not shown) [SC-108, 2-(4-Chlorophenyl)-4-((2-methyl-5-(trifluoromethyl)phenyl)sulfonyl)tetrahydro-2H-pyran]
  inhibition at 3 µM: 75 to 95%

## CC1(S(=O)(=O)c2cccc(C(F)(F)F)n2)CCOC(c2ccc(Cl)cc2)C1 (stereo not shown) [SC-105, 2-[[2-(4-Chlorophenyl)-4-methyl-tetrahydro-pyran-4-yl]sulfonyl]-6-(trifluoromethyl)-pyridine]
  Activity Category: %-Inhib (CaV2.2) @3 μM @30 mM KCl: A (%-Inhibition >95%)

## CC1(S(=O)(=O)c2cccc(C(F)(F)F)c2)CCOC(c2cc(S(C)(=O)=O)ccc2C2CC2)C1 (stereo not shown) [SC-277, 2-(2-Cyclopropyl-5-methylsulfonyl-phenyl)-4-methyl-4-[[3-(trifluoromethyl)phenyl]sulfonyl]-tetrahydro-pyran]
  inhibition at 3 µM: > 95%

## CC1(S(=O)(=O)c2cc(F)cc(C(F)(F)F)c2)CCOC(c2ccc(S(C)(=O)=O)cc2F)C1 (stereo not shown) [SC-519, 2-(2-Fluoro-4-methylsulfonyl-phenyl)-4-[[3-fluoro-5-(trifluoromethyl)-phenyl]sulfonyl]-4-methyl-tetrahydro-pyran]
  Activity Category: %-Inhib (CaV2.2) @3 μM @30 mM KCl: A (%-Inhibition >95%)

## CC1(S(=O)(=O)c2cccc(OC(F)(F)F)c2)CCOC(c2ccc(S(C)(=O)=O)cc2F)C1 (racemic) [SC-504, 2-(2-Fluoro-4-methylsulfonyl-phenyl)-4-methyl-4-[[3-(trifluoromethyloxy)-phenyl]sulfonyl]-tetrahydro-pyran]
  inhibition at 3 µM: > 95%

## CC1(S(=O)(=O)c2cccc(C(F)F)c2)CCOC(c2ccc(S(C)(=O)=O)c(F)c2)C1 (stereo not shown) [SC-269, 4-[[3-(Difluoro-methyl)-phenyl]sulfonyl]-2-(3-fluoro-4-methylsulfonyl-phenyl)-4-methyl-tetrahydro-pyran]
  Activity Category: %-Inhib (CaV2.2) @3 μM @30 mM KCl: C (%-Inhibition >40% up to ≦75%)

## CC1(S(=O)(=O)c2cccc(C(F)(F)F)c2)CCOC(c2ccc(F)c(S(C)(=O)=O)c2)C1 (stereo not shown) [SC-212, 2-(4-Fluoro-3-methylsulfonyl-phenyl)-4-methyl-4-[[3-(trifluoromethyl)phenyl]sulfonyl]-tetrahydro-pyran]
  inhibition at 3 µM: > 95%

## CC1(S(=O)(=O)c2cccc(C(F)(F)F)c2)CCOC(COc2ccc(S(C)(=O)=O)c(F)c2)C1 (single isomer, unassigned) [SC-151, 2-[(3-Fluoro-4-methylsulfonyl-phenoxy)-methyl]-4-methyl-4-[[3-(trifluoromethyl)phenyl]sulfonyl]-tetrahydro-pyran]
  Activity Category: %-Inhib (CaV2.2) @3 μM @30 mM KCl: A (%-Inhibition >95%)
